In brackets after ≈: the same amount, converted by molar mass. Non-standard residues stand in square brackets, D forms with d. Residues, ends and D or L forms follow the SMILES beside them.
Legend:
[1] = tested on: A. baumannii strain 821; test: MIC, microtiter dilution; format: cell-based, Acinetobacter baumannii; conditions: source urine; Mueller-Hinton medium, 37 °C, 24 h, 5 × 10^5 CFU/mL; three sets of determinations
From the text: (§1) All the A. baumannii strains used in this study were (1) obtained from the collection of Dr. Anthony A. Campagnari at the University of Buffalo and originally isolated from different patients and organs/tissues (strain 649, blood; strain 689, groin; strain 759, gluteus; strain 821, urine; strain 884, axilla; strain 899, perineum; strain 964, throat; strain 985, pleural fluid and strain 1012, sputum); (2) were purchased from the American Type Culture Collection (ATCC, Manassas, VA, USA) (strain ATCC 17978, fatal meningitis; and strain ATCC 19606, urine).
(§2) The minimal inhibitory concentration (MIC) is defined as the lowest peptide concentration that inhibited bacterial growth. MICs were measured by a standard microtiter dilution method in Mueller Hinton (MH) medium. Briefly, cells were grown overnight at 37 °C in MH broth and were diluted in the same medium. Serial dilutions of the peptides were added to the microtiter plates in a volume of 50 µL, followed by the addition of 50 µL of bacteria to give a final inoculum of 5 × 10^5 colony-forming units (CFU)/mL. The plates were incubated at 37 °C for 24 h, and the MICs were determined.

[2] = tested on: A. baumannii strain 759; test: MIC, microtiter dilution; format: cell-based, Acinetobacter baumannii; conditions: source gluteus; Mueller-Hinton medium, 37 °C, 24 h, 5 × 10^5 CFU/mL; three sets of determinations
From the text: as §1, §2

[3] = tested on: A. baumannii strain 649; test: MIC, microtiter dilution; format: cell-based, Acinetobacter baumannii; conditions: source blood; Mueller-Hinton medium, 37 °C, 24 h, 5 × 10^5 CFU/mL; three sets of determinations
From the text: as §1, §2

[4] = tested on: A. baumannii strain 884; test: MIC, microtiter dilution; format: cell-based, Acinetobacter baumannii; conditions: source axilla; Mueller-Hinton medium, 37 °C, 24 h, 5 × 10^5 CFU/mL; three sets of determinations
From the text: as §1, §2

[5] = tested on: A. baumannii strain ATCC 19606; test: MIC, microtiter dilution; format: cell-based, Acinetobacter baumannii; conditions: source urine; Mueller-Hinton medium, 37 °C, 24 h, 5 × 10^5 CFU/mL; three sets of determinations
From the text: as §1, §2

[6] = tested on: Acinetobacter baumannii (11 different isolates); format: cell-based; conditions: geometric mean of the MIC values from 11 different isolates of A. baumannii; Table 3A
From the text: as §1, §2
Antibacterial activities against six strains of P. aeruginosa and eleven strains of A. baumannii are compared in Table 3. Geometric mean of MIC values was calculated to provide an overall view of antimicrobial activity of different analogs. It is clear that our peptides were effective in killing the microorganisms tested. Compared to a dramatic reduction in hemolytic activity, antibacterial activity of D-piscidin 1 and D-dermaseptin S4 analogs against eleven strains of A. baumannii maintained the same level (within 2-fold) upon the substitution of “specificity determinant(s)” (Table 3).

[7] = tested on: human erythrocytes; test: Hemolytic activity (HC50); format: cell-based; conditions: for Hemolytic activity HC50: concentration giving 50% hemolysis after 18 h at 37 °C, 1% human erythrocytes in PBS pH 7.4, hemoglobin release at 570 nm, 100% control water (Figure 7)
Protocol: Hemoglobin release was determined spectrophotometrically at 570 nm.
From these plots, the HC50 values, the peptide concentration that produces 50% hemolysis of human red blood cells after 18 hours in the standard microtiter dilution method was determined.

[8] = tested on: P. aeruginosa strain PAO1; conditions: source human wound; Mueller-Hinton medium, 37 °C, 24 h, 5 × 10^5 CFU/mL; three sets of determinations
From the text: (§3) P. aeruginosa strains used are as follows: strain PAO1 was isolated from a human wound in 1955 in Australia; strain WR5 was isolated from a burn patient at Walter Reed Army Hospital, Washington, DC, USA, in 1976 and is a natural toxA^− mutant, but is virulent in experimental mouse models; strain PAK was originally isolated at Memorial University, St. John’s, Newfoundland, Canada, and is widely used in the analysis of pili; strain PA14 was originally isolated as a clinical isolate in 1995 at the Massachusetts General Hospital, Boston, MA, USA and is virulent in a variety of plant and animal models of infection; strain M2 was originally isolated in 1975 from the gastrointestinal tract of a healthy CF1 mouse, University of Cincinnati College of Medicine, and Shriners Burns Institute, Cincinnati, OH, USA and is virulent in a burn mouse model of P. aeruginosa infection; and strain CP204 was isolated from a cystic fibrosis patient in 1989 at the National Jewish Medical and Research Center, Denver, CO, USA. All strains have been maintained at −80 °C in the laboratory of Michael Vasil, University of Colorado, School of Medicine.
(§4) The minimal inhibitory concentration (MIC) is defined as the lowest peptide concentration that inhibited bacterial growth. MICs were measured by a standard microtiter dilution method in Mueller Hinton (MH) medium. Briefly, cells were grown overnight at 37 °C in MH broth and were diluted in the same medium. […] The plates were incubated at 37 °C for 24 h, and the MICs were determined.

[9] = tested on: P. aeruginosa strain WR5; conditions: source burn patient; Mueller-Hinton medium, 37 °C, 24 h, 5 × 10^5 CFU/mL; three sets of determinations
From the text: as §3, §4

[10] = tested on: P. aeruginosa strain M2; conditions: source burn mouse model; Mueller-Hinton medium, 37 °C, 24 h, 5 × 10^5 CFU/mL; three sets of determinations
From the text: as §3, §4

[11] = tested on: P. aeruginosa strain CP204; conditions: source cystic fibrosis patient; Mueller-Hinton medium, 37 °C, 24 h, 5 × 10^5 CFU/mL; three sets of determinations
From the text: as §3, §4

[12] = tested on: P. aeruginosa strain PA14; conditions: Mueller-Hinton medium, 37 °C, 24 h, 5 × 10^5 CFU/mL; three sets of determinations
From the text: as §3, §4

[13] = tested on: P. aeruginosa strain PAK; conditions: Mueller-Hinton medium, 37 °C, 24 h, 5 × 10^5 CFU/mL; three sets of determinations
From the text: as §3, §4

[14] = tested on: A. baumannii strain 689; format: cell-based, Acinetobacter baumannii; conditions: source groin; Mueller-Hinton medium, 37 °C, 24 h, 5 × 10^5 CFU/mL; three sets of determinations
From the text: as §1, §2

[15] = tested on: A. baumannii strain 964; format: cell-based, Acinetobacter baumannii; conditions: source throat; Mueller-Hinton medium, 37 °C, 24 h, 5 × 10^5 CFU/mL; three sets of determinations
From the text: as §1, §2

[16] = tested on: A. baumannii strain 899; format: cell-based, Acinetobacter baumannii; conditions: source perineum; Mueller-Hinton medium, 37 °C, 24 h, 5 × 10^5 CFU/mL; three sets of determinations
From the text: as §1, §2

[17] = tested on: A. baumannii strain ATCC 17978; format: cell-based, Acinetobacter baumannii; conditions: ATCC 17978, 24 h
From the text: as §1, §2

[18] = tested on: A. baumannii strain 1012; format: cell-based, Acinetobacter baumannii; conditions: source sputum; Mueller-Hinton medium, 37 °C, 24 h, 5 × 10^5 CFU/mL; three sets of determinations
From the text: as §1, §2

[19] = tested on: A. baumannii strain 985; format: cell-based, Acinetobacter baumannii; conditions: source pleural fluid; Mueller-Hinton medium, 37 °C, 24 h, 5 × 10^5 CFU/mL; three sets of determinations
From the text: as §1, §2

[20] = tested on: Pseudomonas aeruginosa (6 different isolates); conditions: geometric mean of the MIC values from 6 different isolates of P. aeruginosa; Table 3B
From the text: as §3, §4
Geometric mean of MIC values was calculated to provide an overall view of antimicrobial activity of different analogs.

Row | SMILES | MIC 821 [1] | MIC 759 [2] | MIC 649 [3] | MIC 884 [4] | MIC ATCC19606 [5] | MIC GM [6] | Hemolytic activity HC50 [7] | MIC PAO1 [8] | MIC WR5 [9] | MIC M2 [10] | MIC CP204 [11] | MIC PA14 [12] | MIC PAK [13] | MIC 689 [14] | MIC 964 [15] | MIC 899 [16] | MIC ATCC17978 [17] | MIC 1012 [18] | MIC 985 [19] | MIC GM [20] | further results
1 | CSCC[C@@H](NC(=O)[C@@H](Cc1c[nH]c2ccccc12)NC(=O)[C@@H](CC(C)C)NC(=O)[C@@H](C)N)C(=O)N[C@@H](C(=O)N[C@H](CC(C)C)C(=O)N[C@H](CCCCN)C(=O)N[C@H](CCCCN)C(=O)N[C@H](CCCCN)C(=O)N[C@@H](C(=O)N[C@H](CC(C)C)C(=O)N[C@H](CCCCN)C(=O)N[C@H](C)C(=O)N[C@H](CCCCN)C(=O)N[C@H](C)C(=O)N[C@H](CCCCN)C(=O)N[C@H](C)C(=O)N[C@H](CC(C)C)C(=O)N[C@H](CC(N)=O)C(=O)N[C@H](C)C(=O)N[C@@H](C(=O)N[C@H](CC(C)C)C(=O)N[C@@H](C(=O)NCC(=O)N[C@H](C)C(=O)N[C@H](CC(N)=O)C(=O)N[C@H](C)C(N)=O)C(C)C)C(C)C)C(C)C)[C@H](C)O [D-Dermaseptin S4 L7K,A14K] (H-[dA][dL][dW][dM][dT][dL][dK][dK][dK][dV][dL][dK][dA][dK][dA][dK][dA][dL][dN][dA][dV][dL][dV]G[dA][dN][dA]-NH2) | 0.7 µM (≈ 2 µg/mL) | 1.4 µM (≈ 3.99 µg/mL) | 0.7 µM (≈ 2 µg/mL) | 1.4 µM (≈ 3.99 µg/mL) | 0.7 µM (≈ 2 µg/mL) | 1.1 µM (≈ 3.14 µg/mL) | 241 µM | 5.5 µM (≈ 15.7 µg/mL) | 11.0 µM (≈ 31.4 µg/mL) | 21.9 µM (≈ 62.4 µg/mL) | 1.4 µM (≈ 3.99 µg/mL) | 5.5 µM (≈ 15.7 µg/mL) | 1.4 µM (≈ 3.99 µg/mL) | 0.7 µM (≈ 2 µg/mL) | 2.7 µM (≈ 7.7 µg/mL) | 1.4 µM (≈ 3.99 µg/mL) | 0.7 µM (≈ 2 µg/mL) | 2.7 µM (≈ 7.7 µg/mL) | 0.7 µM (≈ 2 µg/mL) | 4.9 µM (≈ 14 µg/mL) | 
2 | CSCC[C@@H](NC(=O)[C@@H](Cc1c[nH]c2ccccc12)NC(=O)[C@@H](CC(C)C)NC(=O)[C@@H](C)N)C(=O)N[C@@H](C(=O)N[C@H](CC(C)C)C(=O)N[C@H](CC(C)C)C(=O)N[C@H](CCCCN)C(=O)N[C@H](CCCCN)C(=O)N[C@@H](C(=O)N[C@H](CC(C)C)C(=O)N[C@H](CCCCN)C(=O)N[C@H](C)C(=O)N[C@H](C)C(=O)N[C@H](C)C(=O)N[C@H](CCCCN)C(=O)N[C@H](C)C(=O)N[C@H](CC(C)C)C(=O)N[C@H](CC(N)=O)C(=O)N[C@H](C)C(=O)N[C@@H](C(=O)N[C@H](CC(C)C)C(=O)N[C@@H](C(=O)NCC(=O)N[C@H](C)C(=O)N[C@H](CC(N)=O)C(=O)N[C@H](C)C(N)=O)C(C)C)C(C)C)C(C)C)[C@H](C)O [D-Dermaseptin S4] (H-[dA][dL][dW][dM][dT][dL][dL][dK][dK][dV][dL][dK][dA][dA][dA][dK][dA][dL][dN][dA][dV][dL][dV]G[dA][dN][dA]-NH2) | 2.8 µM (≈ 7.78 µg/mL) | 1.4 µM (≈ 3.89 µg/mL) | 1.4 µM (≈ 3.89 µg/mL) | 2.8 µM (≈ 7.78 µg/mL) | 2.8 µM (≈ 7.78 µg/mL) | 1.8 µM (≈ 5 µg/mL) | 0.6 µM | 11.3 µM (≈ 31.4 µg/mL) | 11.3 µM (≈ 31.4 µg/mL) | 11.3 µM (≈ 31.4 µg/mL) | 11.3 µM (≈ 31.4 µg/mL) | 22.5 µM (≈ 62.5 µg/mL) | 11.3 µM (≈ 31.4 µg/mL) | 1.4 µM (≈ 3.89 µg/mL) | 1.4 µM (≈ 3.89 µg/mL) | 1.4 µM (≈ 3.89 µg/mL) | 2.8 µM (≈ 7.78 µg/mL) | 2.8 µM (≈ 7.78 µg/mL) | 0.7 µM (≈ 1.94 µg/mL) | 12.6 µM (≈ 35 µg/mL) | Hemolytic activity Fold improvement in HC50 [7]: 1.0 fold
